Measured values taken from the supplement of paper PMC12137928.
Where a name gives a salt, the structure may show the parent alone.

System: HCT116
Settings: 72 h
How it was run: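 IC50 and maximal efficacy were derived from four-parameter Hill curve fits. The underlying CellTiter-Glo luminescence was scaled so that vehicle equals 0% and positive control equals -100%, and was then pattern-corrected. HCT116 cells had been seeded in 1536-well plates at 250 per well.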

Structure (SMILES): CCOc1ccc2ccccc2c1C(=O)N[C@@H]1C(=O)N2[C@@H]1SC(C)(C)[C@@H]2C(=O)O [Nafcillin sodium monohydrate]
- IC50 cell viability (ICRF193 0 nM): > 45.8 µM
- IC50 cell viability (ICRF193 200 nM): > 45.8 µM

Structure (SMILES): CCN(CC)CCOC(=O)C(Cc1cccc2ccccc12)CC1CCCO1 (configuration not stated) [Nafronyl oxalate]
- IC50 cell viability (ICRF193 0 nM): > 45.8 µM
- IC50 cell viability (ICRF193 200 nM): > 45.8 µM

Structure (SMILES): Oc1ccc2c3c1O[C@H]1[C@@H](O)CC[C@@]4(O)[C@@H](C2)N(CC2CCC2)CC[C@]314 [Nalbuphine hydrochloride]
- IC50 cell viability (ICRF193 0 nM): > 45.8 µM
- IC50 cell viability (ICRF193 200 nM): > 45.8 µM

Structure (SMILES): CN(C(=O)/C=C/c1ccoc1)[C@@H]1CC[C@@]2(O)[C@H]3Cc4ccc(O)c5c4[C@@]2(CCN3CC2CC2)[C@H]1O5 [Nalfurafine hydrochloride]
- IC50 cell viability (ICRF193 0 nM): > 45.8 µM
- IC50 cell viability (ICRF193 200 nM): > 45.8 µM

Structure (SMILES): CCn1cc(C(=O)O)c(=O)c2ccc(C)nc21 [Nalidixic acid]
- IC50 cell viability (ICRF193 0 nM): > 45.8 µM
- IC50 cell viability (ICRF193 200 nM): > 45.8 µM

Structure (SMILES): C=C1CC[C@@]2(O)[C@H]3Cc4ccc(O)c5c4[C@@]2(CCN3CC2CC2)[C@H]1O5 [Nalmefene]
- IC50 cell viability (ICRF193 0 nM): > 45.8 µM
- IC50 cell viability (ICRF193 200 nM): > 45.8 µM

Structure (SMILES): C=CCN1CC[C@]23c4c5ccc(O)c4O[C@H]2[C@@H](OCCOCCOCCOCCOCCOCCOCCOC)CC[C@@]3(O)[C@H]1C5 [Naloxegol (oxalate)]
- IC50 cell viability (ICRF193 0 nM): > 45.8 µM
- IC50 cell viability (ICRF193 200 nM): > 45.8 µM

Structure (SMILES): C=CCN1CC[C@]23c4c5ccc(O)c4O[C@H]2C(=O)CC[C@@]3(O)[C@H]1C5 [Naloxone]
- IC50 cell viability (ICRF193 0 nM): > 45.8 µM
- IC50 cell viability (ICRF193 200 nM): > 45.8 µM

Structure (SMILES): CC(=O)N[C@@H](CCC(N)=O)C(=O)O [Nalpha-Acetyl-L-glutamine]
- IC50 cell viability (ICRF193 0 nM): > 45.8 µM
- IC50 cell viability (ICRF193 200 nM): > 45.8 µM

Structure (SMILES): O=C1CC[C@@]2(O)[C@H]3Cc4ccc(O)c5c4[C@@]2(CCN3CC2CC2)[C@H]1O5 [Naltrexone hydrochloride]
- IC50 cell viability (ICRF193 0 nM): > 45.8 µM
- IC50 cell viability (ICRF193 200 nM): > 45.8 µM

Structure (SMILES): CCCCCCCCCC(=O)O[C@H]1CC[C@H]2[C@@H]3CCC4=CC(=O)CC[C@@H]4[C@H]3CC[C@]12C [Nandrolone decanoate]
- IC50 cell viability (ICRF193 0 nM): > 45.8 µM
- IC50 cell viability (ICRF193 200 nM): > 45.8 µM

Structure (SMILES): C[C@]12CC[C@H]3[C@@H](CCC4=CC(=O)CC[C@@H]43)[C@@H]1CC[C@@H]2OC(=O)CCc1ccccc1 [Nandrolone phenpropionate]
- IC50 cell viability (ICRF193 0 nM): > 45.8 µM
- IC50 cell viability (ICRF193 200 nM): > 45.8 µM

Structure (SMILES): c1ccc2c(CC3=NCCN3)cccc2c1 [Naphazoline hydrochloride]
- IC50 cell viability (ICRF193 0 nM): > 45.8 µM
- IC50 cell viability (ICRF193 200 nM): > 45.8 µM

Structure (SMILES): COc1ccc2cc([C@H](C)C(=O)O)ccc2c1 [Naproxen sodium]
- IC50 cell viability (ICRF193 0 nM): > 45.8 µM
- IC50 cell viability (ICRF193 200 nM): > 45.8 µM

Structure (SMILES): CNS(=O)(=O)CCc1ccc2[nH]cc(C3CCN(C)CC3)c2c1 [Naratriptan hydrochloride]
- IC50 cell viability (ICRF193 0 nM): > 45.8 µM
- IC50 cell viability (ICRF193 200 nM): > 45.8 µM

Structure (SMILES): CC(C)[C@H]1CC[C@H](C(=O)N[C@H](Cc2ccccc2)C(=O)O)CC1 [Nateglinide]
- IC50 cell viability (ICRF193 0 nM): > 45.8 µM
- IC50 cell viability (ICRF193 200 nM): > 45.8 µM

Structure (SMILES): N.N.O=C([O-])C[O-].[Pt+2] [Nedaplatin]
- IC50 cell viability (ICRF193 0 nM): > 45.8 µM
- IC50 cell viability (ICRF193 200 nM): > 45.8 µM

Structure (SMILES): CCCc1c2oc(C(=O)O)cc(=O)c2cc2c(=O)cc(C(=O)O)n(CC)c12 [Nedocromil]
- IC50 cell viability (ICRF193 0 nM): > 45.8 µM
- IC50 cell viability (ICRF193 200 nM): > 45.8 µM

Structure (SMILES): CN1CCOC(c2ccccc2)c2ccccc2C1 (configuration not stated) [Nefopam hydrochloride]
- IC50 cell viability (ICRF193 0 nM): > 45.8 µM
- IC50 cell viability (ICRF193 200 nM): > 45.8 µM

Structure (SMILES): COc1nc(N)nc2c1ncn2[C@@H]1O[C@H](CO)[C@@H](O)[C@@H]1O [Nelarabine]
- IC50 cell viability (ICRF193 0 nM): > 45.8 µM
- IC50 cell viability (ICRF193 200 nM): > 45.8 µM

Structure (SMILES): CN(C)C(=O)Oc1cccc([N+](C)(C)C)c1 [Neostigmine bromide]
- IC50 cell viability (ICRF193 0 nM): > 45.8 µM
- IC50 cell viability (ICRF193 200 nM): > 45.8 µM

Structure (SMILES): NC(=O)Cc1cccc(C(=O)c2ccccc2)c1N [Nepafenac]
- IC50 cell viability (ICRF193 0 nM): > 45.8 µM
- IC50 cell viability (ICRF193 200 nM): > 45.8 µM

Structure (SMILES): COc1ccnc2c1CCCCC2[S+]([O-])c1nc2ccccc2[nH]1 (configuration not stated) [Nepaprazole]
- IC50 cell viability (ICRF193 0 nM): > 45.8 µM
- IC50 cell viability (ICRF193 200 nM): > 45.8 µM

Structure (SMILES): CCCCc1cc2c(=O)c(C(=O)OC)c[nH]c2cc1OCc1ccccc1 [Nequinate]
- IC50 cell viability (ICRF193 0 nM): > 45.8 µM
- IC50 cell viability (ICRF193 200 nM): > 45.8 µM

Structure (SMILES): CCOc1cc2ncc(C#N)c(Nc3ccc(OCc4ccccn4)c(Cl)c3)c2cc1NC(=O)/C=C/CN(C)C [Neratinib]
- IC50 cell viability (ICRF193 0 nM): > 45.8 µM
- IC50 cell viability (ICRF193 200 nM): > 45.8 µM

Structure (SMILES): CCN[C@@H]1C[C@H](N)[C@@H](O[C@H]2OC(CN)=CC[C@H]2N)[C@H](O)[C@H]1O[C@H]1OC[C@](C)(O)[C@H](NC)[C@H]1O [Netilmicin sulfate]
- IC50 cell viability (ICRF193 0 nM): > 45.8 µM
- IC50 cell viability (ICRF193 200 nM): > 45.8 µM

Structure (SMILES): Cc1ccccc1-c1cc(N2CCN(C)CC2)ncc1N(C)C(=O)C(C)(C)c1cc(C(F)(F)F)cc(C(F)(F)F)c1 [Netupitant]
- IC50 cell viability (ICRF193 0 nM): > 45.8 µM
- IC50 cell viability (ICRF193 200 nM): > 45.8 µM

Structure (SMILES): Cc1ccnc2c1NC(=O)c1cccnc1N2C1CC1 [Nevirapine]
- IC50 cell viability (ICRF193 0 nM): > 45.8 µM
- IC50 cell viability (ICRF193 200 nM): > 45.8 µM

Structure (SMILES): O=C(O)c1cccnc1 [Niacin]
- IC50 cell viability (ICRF193 0 nM): > 45.8 µM
- IC50 cell viability (ICRF193 200 nM): > 45.8 µM

Structure (SMILES): CCN(CC)CCOC(=O)c1cccnc1 [Nicametate citrate]
- IC50 cell viability (ICRF193 0 nM): > 45.8 µM
- IC50 cell viability (ICRF193 200 nM): > 45.8 µM

Structure (SMILES): O=C(OCC(COC(=O)c1cccnc1)(COC(=O)c1cccnc1)COC(=O)c1cccnc1)c1cccnc1 [Niceritrol]
- IC50 cell viability (ICRF193 0 nM): > 45.8 µM
- IC50 cell viability (ICRF193 200 nM): > 45.8 µM
